Read-outs that look alike come from different tables or passages of the source.
Experiments:
[1] = target: T1, JAK2 JH2 WT (V536-D812) [W659A, W777A, F794H solubilizing mutations] (Homo sapiens, UniProt O60674, F794H/W659A/W777A); assay: Surface Plasmon Resonance (SPR) binding assay, JAK2 JH2 domain
T1 construct: **JAK2 JH2 WT (V536-D812) [W659A, W777A, F794H solubilizing mutations]; C-thrombin-avi-His6; thrombin cleavage site (C); His6 (C); purchased Biortus
Description: Selected compounds of the present disclosure were tested in a Surface Plasmon Resonance (SPR) Assay to measure their binding kinetics and affinity for proteins of interest.
Prepare buffer: 50 mM HEPES pH 7.5, 150 mM NaCl, 0.05% (v/v) Tween, and 10% (v/v) glycerol were combined and pH was adjusted to 7.5, then filtered. 5 mM DTT, was added, and buffer without DMSO was reserved for compound resuspension. 2% (v/v) DMSO was added for assay buffer, and separately 1% DMSO was used to make buffer for resuspending compounds.
Prepare compounds: Using a Bravo liquid handler, 99 μL of 1% (v/v) DMSO assay buffer was added to 1 μL compounds in DMSO.
Run 8K Method: Biotin CAPture (CAP) chip surface was regenerated prior to run by: Inserting CAP chip into Biacore 8K, prime machine with assay buffer with 2% (v/v) DMSO; Setting instrument temperature to 20° C.; Conditioning surface with NaOH/GdnHCl reagents from CAP chip kit (60 seconds, 10 μL/min); and Capturing oligo-Streptavidin (SA) reagent from CAP kit (600 seconds, 1 μL/min), expected capture ˜2500 RU. JAK2 JH1 or JH2 protein was immobilized by preparing a sample of 0.5 uM JH1 or 0.4 uM JH2 protein diluted in assay buffer without DMSO and supplemented with 10 uM of a selected compound of the invention as a stabilizer (370 seconds, 5 uL/min), expected capture ˜1000 RU. Remaining biotin sites on SA were blocked with 1 uM biotin (30 seconds, 20 uL/min), then equilibrated for 1800 seconds at 100 uL/min. Compounds being assayed were run in single cycle kinetics: 4 doses with a top concentration of 5 uM (JH1) or 500 nM (JH2), dilution factor of 3, at 20° C., for a contact time of 60 seconds, and a dissociation time of 300 seconds (JH1) or 1200 seconds (JH2), at a flow rate of 30 uL/min. The surface was completely regenerated after each compound is run, and JH1 or JH2 protein was immobilized fresh prior to each new compound. Data were fitted kinetically with 1:1 binding model using Biacore Insight Evaluation Software.

[2] = tested on: TF1 JAK2 V617F STAT3 reporter; assay: Cellular TF1 STAT3 assay (luciferase reporter), JAK2 V617F; type: cell-based; conditions: read-out: Cell PD-TF1 JAK2 V617F STAT3 (IC50)
Description: (§1) Selected compounds of the present disclosure were tested in a Cellular TF1 STAT3 or STAT5 assay, to measure the degree of JAK2-mediated STAT3 or STAT5 phosphorylation, respectively. TF1 cells (immortalized erythroleukemia line) expressing either wildtype or V617F mutant JAK2 with a luciferase reporter were used.
(§2) Cell culture: Cells were put into antibiotic selection (1 ug/ml puro+500 ug/ml Geneticin) when first thawed then maintained in growth media without antibiotics. Cells were maintained in exponential growth phase, between 0.02-1 E6 cells/ml.
(§3) Compound preparation: Compounds were screened as 10-point dose response curves 1:3 dilutions. DMSO is used as the vehicle control. All wells were normalized to the same final DMSO concentration. Compounds were pre-spotted onto 384 well plates using an Echo acoustic dispenser, 50 nL of 1000× (10 mM top concentration) DMSO stock/well. Each compound is run in triplicate plates.
(§4) Cell plating: Cells were counted using Vi-Cell XR, then cells were spun down and resuspended in growth media to 200,000 cells/ml. Cells were added to plates containing compound. 10,000 cells/well in 50 ul volume using a Biomek liquid handler. Plates were briefly mixed on a shaker for 1 minute at 2500 rpm then placed in a 37° C., 5% CO2 incubator overnight for 18-20 hrs.
(§5) Measuring luciferase activity: ONE-glo reagent was brought to room temperature, and 25 μL of ONE-glo assay reagent was added to each well using Biomek liquid handler. The plates were incubated for 10 minutes at room temperature, then luminescence was measured on an Envision plate reader.

[3] = tested on: TF1 JAK2 V617F STAT5 reporter; assay: Cellular TF1 STAT5 assay (luciferase reporter), JAK2 V617F; type: cell-based; conditions: read-out: Cell PD TF1 V617F STAT5 (IC50)
Description: as §1, §2, §3, §4, §5

[4] = Homo sapiens, TF-1, TF1 cells, JAK2 V617F

T1 sequence (O60674 536-812 W659A/W777A/F794H): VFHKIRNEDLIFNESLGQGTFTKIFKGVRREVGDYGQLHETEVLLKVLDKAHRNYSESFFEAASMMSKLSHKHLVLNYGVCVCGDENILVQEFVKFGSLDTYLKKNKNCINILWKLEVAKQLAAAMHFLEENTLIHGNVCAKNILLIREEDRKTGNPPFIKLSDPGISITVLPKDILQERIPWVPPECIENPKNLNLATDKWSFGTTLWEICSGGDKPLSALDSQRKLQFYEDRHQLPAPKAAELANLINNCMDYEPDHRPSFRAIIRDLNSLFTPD

SMILES | Kd ([1]; SPR, JAK2 JH2 domain) | IC50 ([2]; TF1 JAK2 V617F) | IC50 ([3]; TF1 JAK2 V617F) | Kd [1] | IC50 [2, 4] | IC50 [3, 4]
CNC(=O)c1nnc(NC(=O)C2CC2)cc1Nc1cccc(-c2cnn(C3CN(Cc4ncc(C)s4)C3)c2)c1OC [Compound 123] | 0.01 to 10 nM | 500 to 5000 nM | 500 to 5000 nM |  |  | 
CNC(=O)c1nnc(NC(=O)C2CC2)cc1Nc1cccc(-c2ccc(C(=O)N(C)Cc3cn(C)nc3OC)nc2)c1OC [Compound 257] |  |  |  | 0.01 to 10 nM | 50 to 500 nM | 50 to 500 nM
CNC(=O)c1nnc(NC(=O)C2CC2)cc1Nc1cccc(-c2cnn(C3CN(Cc4cccc(NS(C)(=O)=O)n4)C3)c2)c1OC [Compound 273] |  |  |  | 0.01 to 10 nM | 500 to 5000 nM | 500 to 5000 nM
CNC(=O)c1nnc(NC(=O)C2CC2)cc1Nc1cccc(-c2cnn(C3CN(Cc4cc(OC)ccn4)C3)c2)c1OC [Compound 88] | 0.01 to 10 nM | 500 to 5000 nM | 500 to 5000 nM |  |  | 
CNC(=O)c1nnc(NC(=O)C2CC2)cc1Nc1cccc(-c2ccc(C3CN(Cc4ccc5c(n4)CCC5)C3)nc2)c1OC [Compound 385] |  |  |  | 50 to 500 nM | 5000 to 100000 nM | 500 to 5000 nM
CNC(=O)c1nnc(NC(=O)C2CC2)cc1Nc1cccc(-c2cnn(C3CN(Cc4cccnc4Cl)C3)c2)c1OC [Compound 169] | 0.01 to 10 nM | 50 to 500 nM | 50 to 500 nM |  |  | 
CNC(=O)c1nnc(NC(=O)C2CC2)cc1Nc1cccc(-c2ccc(C(=O)N3CCc4cnn(C)c4C3)nc2)c1OC [Compound 120] | 0.01 to 10 nM | 5000 to 100000 nM | 5000 to 100000 nM |  |  | 
CNC(=O)c1nnc(NC(=O)C2CC2)cc1Nc1cccc(-c2ccc(C(=O)N(C)C[C@@H]3CCS(=O)(=O)C3)nc2)c1OC (single isomer, unassigned) [Compound 209] |  |  |  | 10 to 50 nM | 5000 to 100000 nM | 5000 to 100000 nM
CNC(=O)c1nnc(NC(=O)C2CC2)cc1Nc1cccc(-c2ccc(C3CN(Cc4ccc(C(F)(F)F)cn4)C3)nc2)c1OC [Compound 387] |  |  |  |  | 5000 to 100000 nM | 500 to 5000 nM
CNC(=O)c1nnc(NC(=O)C2CC2)cc1Nc1cccc(-c2cnn(C3CN(Cc4cccc([S@@+](C)[O-])n4)C3)c2)c1OC (single isomer, unassigned) [Compound 403] |  |  |  |  |  | 50 to 500 nM
COc1c(Nc2cc(NC(=O)C3CC3)nn3cc(C(N)=O)nc23)ccc(C)c1-c1cnn(C2CN(Cc3ccccn3)C2)c1 [Compound 392] |  |  |  |  | 5000 to 100000 nM | 5000 to 100000 nM
CNC(=O)c1nnc(NC(=O)C2CC2)cc1Nc1nccc(-c2ccc(C(=O)N(C)Cc3ncc(COC)s3)nc2)c1OC [Compound 375] |  |  |  | 0.01 to 10 nM |  | 
COc1c(Nc2cc(NC(=O)C3CC3)nnc2-c2ncc[nH]2)cccc1-c1cnn(C2CN(Cc3ccccn3)C2)c1 [Compound 406] |  |  |  |  |  | 5000 to 100000 nM
CNC(=O)c1nnc(NC(=O)C2CC2)cc1Nc1cccc(-c2ccc(C(=O)N(C)C(C)c3cnn(C)c3)nc2)c1OC (centres unmarked) [Compound 46] | 0.01 to 10 nM |  |  |  |  | 
CNC(=O)c1nnc(NC(=O)C2CC2)cc1Nc1cccc(-c2cc(N3CC(Cc4ccccn4)C3)n(C)n2)c1OC [Compound 404] |  |  |  |  |  | 5000 to 100000 nM
CNC(=O)c1nnc(NC(=O)C2CC2)cc1Nc1cccc(-c2cc(N3CC(Oc4ccccn4)C3)n(C)n2)c1OC [Compound 393] |  |  |  |  | 500 to 5000 nM | 5000 to 100000 nM
CNC(=O)c1nnc(NC(=O)C2CC2)cc1Nc1cccc(-c2cnn(C3CN(Cc4cccc([S@+](C)[O-])n4)C3)c2)c1OC (single isomer, unassigned) [Compound 402] |  |  |  |  |  | 50 to 500 nM
CNC(=O)c1nnc(NC(=O)C2CC2)cc1Nc1cccc(-c2cnn(C3CN(Cc4nn(C)cc4C)C3)c2)c1OC [Compound 215] |  |  |  |  | 500 to 5000 nM | 500 to 5000 nM
CNC(=O)c1nnc(NC(=O)C2CC2)cc1Nc1cccc(-c2ccc(C3CN(Cc4ncc(OC)cc4Cl)C3)nc2)c1OC [Compound 386] |  |  |  |  | 5000 to 100000 nM | 500 to 5000 nM
COc1c(Nc2cc(NC(=O)C3CC3)nn3cc(C#N)nc23)ccc(C)c1-c1cnn(C2CN(Cc3ccccn3)C2)c1 [Compound 395] |  |  |  |  | 5000 to 100000 nM | 5000 to 100000 nM
CNC(=O)c1nnc(NC(=O)C2CC2)cc1Nc1cccc(-c2ccc(C3CN(Cc4ccc(OC5CC5)cn4)C3)nc2)c1OC [Compound 390] |  |  |  | 50 to 500 nM |  | 

Results, then the molecule that gave them:

Kd ([1]; SPR, JAK2 JH2 domain) | IC50 ([2]; TF1 JAK2 V617F) | IC50 ([3]; TF1 JAK2 V617F) | Kd [1] | IC50 [2, 4] | IC50 [3, 4] | SMILES
0.01 to 10 nM | 50 to 500 nM | 50 to 500 nM |  |  |  | CNC(=O)c1nnc(NC(=O)C2CC2)cc1Nc1cccc(-c2cnc(C(=O)N(C)Cc3ccccn3)c(F)c2)c1OC [Compound 27]
 |  |  | 0.01 to 10 nM | 50 to 500 nM | 50 to 500 nM | COc1c(Nc2cc(NC(=O)C3CC3)nnc2-c2ncc[nH]2)ccc(C)c1-c1ccc(C(=O)N(C)Cc2cc(C#N)ccn2)nc1 [Compound 371]
0.01 to 10 nM | 500 to 5000 nM | 500 to 5000 nM |  |  |  | CNC(=O)c1nnc(NC(=O)C2CC2)cc1Nc1ccc(C)c(-c2cnn(C3CN(Cc4ccccn4)C3)c2)c1OC [Compound 67]
0.01 to 10 nM | 50 to 500 nM | 500 to 5000 nM |  |  |  | [2H]C([2H])([2H])NC(=O)c1nnc(NC(=O)C2CC2)cc1Nc1cccc(-c2ccc(C(=O)N(C)Cc3ccn(C)n3)nc2)c1OC [Compound 79]
0.01 to 10 nM | 500 to 5000 nM | 500 to 5000 nM |  |  |  | CNC(=O)c1nnc(NC(=O)C2CC2)cc1Nc1cccc(-c2ccc(C(=O)N(C)Cc3cc(C#N)ccn3)c(C(F)(F)F)c2)c1OC [Compound 170]
0.01 to 10 nM | 5000 to 100000 nM | 5000 to 100000 nM |  |  |  | CNC(=O)c1nnc(NC(=O)C2CC2)cc1Nc1cccc(-c2ccc(C(=O)N(C)Cc3ncc(C#N)s3)nc2)c1OC [Compound 178]
0.01 to 10 nM | 500 to 5000 nM | 500 to 5000 nM |  |  |  | CNC(=O)c1nnc(NC(=O)C2CC2)cc1Nc1cccc(-c2ccc(C(=O)N(C)Cc3cccnn3)nc2)c1OC [Compound 45]
50 to 500 nM | 5000 to 100000 nM | 5000 to 100000 nM |  |  |  | CNC(=O)c1nnc(NC(=O)C2CC2)cc1Nc1ccc(C)c(-c2cc(C3CCN(Cc4cc(C#N)ccn4)CC3)n(C)n2)c1OC [Compound 186]
 |  |  |  |  | 50 to 500 nM | CNC(=O)c1nnc(NC(=O)C2CC2)cc1Nc1cccc(-c2ccc(C(=O)N(C)Cc3cc([S@@+](C)[O-])ccn3)nc2)c1OC (single isomer, unassigned) [Compound 405]
 |  |  |  | 500 to 5000 nM | 500 to 5000 nM | CNC(=O)c1nnc(NC(=O)C2CC2)cc1Nc1cccc(-c2ccc(C(=O)N(C)Cc3cc(C#N)ccn3)c(C(F)F)c2)c1OC [Compound 233]
 |  |  |  |  | 50 to 500 nM | CNC(=O)c1nnc(NC(=O)C2CC2)cc1Nc1cc(F)c(C)c(-c2ccc(C(=O)N(C)Cc3cc(S(C)(=O)=O)ccn3)nc2)c1OC [Compound 400]
 |  |  |  |  | 50 to 500 nM | CNC(=O)c1nnc(NC(=O)C2CC2)cc1Nc1ccc(Cl)c(-c2ccc(C(=O)N(C)Cc3cc(S(C)(=O)=O)ccn3)nc2)c1OC [Compound 401]
 |  |  |  |  | 500 to 5000 nM | CNC(=O)c1nnc(NC(=O)C2CC2)cc1Nc1cccc(-c2ccc(C(=O)N(C)Cc3cc([S@+](C)[O-])ccn3)nc2)c1OC (single isomer, unassigned) [Compound 407]
0.01 to 10 nM |  |  |  |  |  | [2H]C([2H])([2H])N(Cc1cc(C#N)ccn1)C(=O)c1ncc(-c2c(C)ccc(Nc3cc(NC(=O)C4CC4)nnc3C(=O)NC)c2OC)cn1 [Compound 87]

Reference: patent US20240368122A1, “JAK2 INHIBITORS AND METHODS OF USE THEREOF” (RELAY THERAPEUTICS, INC., priority 2021, published 2024)
